# Patent US10172909B2, “Neuropeptide analogs, compositions, and methods for treating pain” (NeuroAdjuvants, Inc., priority 2010, dated 2019)
# Square brackets hold non-standard residues; d marks the D form. Ends that are not written are not given here. Peptide text beside a SMILES is read from it. * marks the point of attachment. MeO(CH2CH2O)23CH2CH2CO = COCCOCCOCCOCCOCCOCCOCCOCCOCCOCCOCCOCCOCCOCCOCCOCCOCCOCCOCCOCCOCCOCCOCCOCCC(=O)*; α‑Lnn = alpha-linolenic acid on Lys, CC/C=C\C/C=C\C/C=C\CCCCCCCC(=O)*; NMeW = CN[C@@H](Cc1c[nH]c2ccccc12)C(=O)O; MPEG24 = PEG24 on Lys (Lys-MPEG_24); Palmitoyl = CCCCCCCCCCCCCCCC(=O)*; MPEG4 = PEG4 on Lys (Lys-MPEG_4); Ahx = NCCCCCC(=O)O; Sar = CNCC(=O)O
# Legend:
# mice = assay: formalin test of acute and chronic hyperalgesia in mice; type: in vivo; design: AUC Acute: unit not given beside the values; details: mouse formalin test; for AUC Acute / AUC Inflammatory: i.p., licking AUC as percentage of control AUC, mean ± S.E.M., n=8
# Protocol: Gal-93 and other MEGylated analogs were tested using the formalin test of acute and chronic hyperalgesia in mice. The formalin test was performed according to the method described by Tjolsen et al. (Tjolsen A, Berge O G, Hunskaar S, Rosland J H, Hole K. The Formalin Test: An Evaluation of the Method. Pain 53(2), 237; 1992). More specifically, an injection of 0.5% formalin is made into the plantar region of the right hind paw of a mouse. This elicits a distinct behavioral profile in response to the formalin injection characterized by the mouse licking the affected paw. The behavior is characteristically biphasic in nature. For example, immediately following the injection the mouse intensely licks the paw for approximately 5-10 min. This initial behavior is considered phase 1 (acute) and is thought to be mediated primarily by chemical activation of local C-fibers. The acute phase is followed by a brief latent (usually <5 min) period where there is little or no behavioral activity. A more prolonged (about 20 to 30 min) period of licking then ensues which constitutes phase 2 of the response (inflammatory). Prior to the administration of the test drug or vehicle, each mouse undergoes a 15-min conditioning period in one of several 6″ tall plexiglass cages (4″ diameter) that are placed in front of a mirror. It is in these tubes that mice are observed for the licking activity for the duration of the experiment. Following conditioning, the test substance is dosed i.p. after which the mouse is returned to its home tube. At the TPE of the test substance, formalin is injected sub-dermally into the plantar surface of the right hind foot in a volume of 20 μl with a 27 gauge stainless steel needle attached to a Hamilton syringe. The bevel of the needle is placed facing down toward the skin surface.
# The cumulative length of licking for each 2-min time period was recorded. An animal receiving the requisite volume of vehicle was alternated with each mouse given the test peptide. Area under the curve (AUC) and subsequent percent of control for drug-treated animal groups (n=8) was determined using the GraphPad Prism Version 3.03. Total AUC was calculated for both the test substance and control groups for both the acute and inflammatory phases. The AUC for individual animals for each phase was also calculated and converted to percentage of total AUC of control. The average and S.E.M. for both the drug treated and control percentages were then calculated and tested for significant differences.
# Sprague-Dawley rats = details: rat, in vivo, iv
molecule,measurement,setting,value
(N-Methyl-Trp)TLNSAGYLLGPKK(Lys-MPEG4)K-NH2 ([NMeW]TLNSAGYLLGPKKK(MPEG4)K-NH2) [Gal-104],"duration of licking, inflammatory phase",mice; result in words,significantly reduced
(Sar)WTLNSAGYLLGPKK(Lys-Pal)K(Lys-MPEG24)-NH2 ([Sar]WTLNSAGYLLGPKKK(Palmitoyl)KK(MPEG24)-NH2) [Gal-81],AUC Acute,mice,19.7 ± 7.2
same,AUC Inflammatory,mice,2.9 ± 2.2
same,"duration of licking, acute phase",mice; result in words,significantly reduced
same,"duration of licking, inflammatory phase",mice; result in words,significantly reduced
CC[C@H](C)[C@H](NC(=O)[C@H](Cc1ccc(O)cc1)NC(=O)[C@H](Cc1c[nH]cn1)NC(=O)[C@H](CCCNC(=N)N)NC(=O)[C@H](C)NC(=O)CCCCCNC(=O)[C@H](CCCCNC(=O)CCOCCOCCOCCOCCOCCOCCOCCOCCOCCOCCOCCOCCOCCOCCOCCOCCOCCOCCOCCOCCOCCOCCOCCOC)NC(=O)[C@H](CCCCN)NC(=O)[C@H](CCCCN)NC(=O)[C@H](Cc1ccc(O)cc1)NC(C)=O)C(=O)N[C@@H](CC(N)=O)C(=O)N[C@@H](CC(C)C)C(=O)N[C@H](C(=O)N[C@H](C(=O)N[C@@H](CCCNC(=N)N)C(=O)N[C@@H](CCC(N)=O)C(=O)N[C@@H](CCCNC(=N)N)C(=O)N[C@@H](Cc1ccc(O)cc1)C(N)=O)[C@@H](C)O)[C@@H](C)CC [NPY-B42] (Ac-YKKK(MeO(CH2CH2O)23CH2CH2CO)[Ahx]ARHYINLITRQRY-NH2),HCT 30 min,Sprague-Dawley rats,42 ± 2
same,HCT 60 min,Sprague-Dawley rats,42 ± 1
same,Phenylephrine post-treatment response BP max,Sprague-Dawley rats,161 ± 4
same,Phenylephrine post-treatment response HR min,Sprague-Dawley rats,291 ± 26
same,difference from vehicle treated rats in any cardiovascular parameter measured,Sprague-Dawley rats,neither Gal-93 or NPY-B42 showed statistically significant difference from vehicle treated rats
same,glucose 30 min,Sprague-Dawley rats,78 ± 5
same,glucose 60 min,Sprague-Dawley rats,73 ± 4
same,plasma protein 30 min,Sprague-Dawley rats,6.5 ± 0.4
same,plasma protein 60 min,Sprague-Dawley rats,6.8 ± 0.3
same,temperature 30 min,Sprague-Dawley rats,37.2 ± 0.2
same,temperature 60 min,Sprague-Dawley rats,36.9 ± 0.4
WTLNSAGYLLGPKK(Lys-MPEG4)K-NH2 (WTLNSAGYLLGPKKK(MPEG4)K-NH2) [Gal-103],AUC Acute,mice,66.3 ± 14.6
same,AUC Inflammatory,mice,75.6 ± 8.9
(Sar)WTLNSAGYLLGPKK(Lys-α-Lnn)K(Lys-MPEG24)-NH2 ([Sar]WTLNSAGYLLGPKKK(α‑Lnn)KK(MPEG24)-NH2) [Gal-100],AUC Acute,mice,83.08 ± 13.34
same,AUC Inflammatory,mice,33.78 ± 3.04
same,"duration of licking, inflammatory phase",mice; result in words,significantly reduced
